Here are results for 16 compounds from patent publication US9481673B2, “6-alkynyl-pyridine derivatives” (Boehringer Ingelheim International GmbH, priority 2014, dated 2016).

The target of one data set is cIAP1 BIR3 (Homo sapiens (Human), UniProt Q13490). In words: cIAP1 BIR3 binding assay (DELFIA), BIR3-SMAC peptide interaction. The settings on record: (S)-isomers; BIR3 domain 10 nM, SMAC peptide 10 nM; read-out: cIAP1 BIR-3 IC50.
For another data set, the target named is P450 2C19 (Homo sapiens (Human), UniProt P33261). Put plainly: Cytochrome P450 isoenzyme inhibition assay, hydroxylation of Mephenytoin. It counts as in vitro ADME.
A further data set deals with P450 2C8 (Homo sapiens (Human), UniProt P10632). Put plainly: Cytochrome P450 isoenzyme inhibition assay, deethylation of Amodiaquine. It counts as in vitro ADME.
For the next data set, the target named is P450 2C9 (Homo sapiens (Human), UniProt P11712). Put plainly: Cytochrome P450 isoenzyme inhibition assay, hydroxylation of Diclofenac. It counts as in vitro ADME.
The target in another data set is P450 3A4 (Homo sapiens (Human), UniProt P08684). Put plainly: Cytochrome P450 isoenzyme inhibition assay, hydroxylation of Midazolam. It counts as in vitro ADME.
A short description of data set [1]: Solubility measurement (DMSO solution precipitation method). In kind it is physicochemical. The following applies: aqueous buffer, kinetic from dmso stock; (S)-isomers; McIlvaine buffer pH 6.8, 24 h shaking at ambient temperature; read-out: Sol pH 6.8.
In the next data set the target is P450 2D6 (Homo sapiens (Human), UniProt P10635). In words: Cytochrome P450 isoenzyme inhibition assay, demethylation of Dextromethorphan. It counts as in vitro ADME. The settings on record: measured examples from WO 2013/127729 (Table 1).
Where [2] appears, read: (S)-isomers, human liver microsomes, 37° C.
[3] abbreviates: measured examples from WO 2013/127729 (Table 1).

pIC50: −log10 of the molar value. ≈ marks a conversion by molar mass, not a printed value.

`CN[C@@H](C)C(=O)Nc1ccc(-c2c(-c3cnc(C)nc3)nc3cc(C)ccn23)c(C#Cc2ccc3c(C)nccc3c2)n1` [(S)-7, (2S)-N-{5-[7-methyl-2-(2-methylpyrimidin-5-yl)imidazo[1,2-a]-pyridin-3-yl]-6-[2-(1-methylisoquinolin-6-yl)ethynyl]pyridin-2-yl}-2-(methylamino)-propanamide]: the negative logarithm of the IC50 (pIC50) (as a rule, −log10 of the IC50, conventionally taken in molar units) on cIAP1 BIR3 was 9.00; on P450 2C19 (setting [2]) it was below 4.30; on P450 2C8 (setting [2]), below 4.30; against P450 2C9 (setting [2]), below 4.30; on P450 3A4 (setting [2]), below 4.30. For the same compound, the solubility kinetic at 24 h in data set [1] was below 1 µg/mL.
As to `CN[C@@H](C)C(=O)Nc1ccc(-c2c(-c3cncn3C)nc3cc(C)ccn23)c(C#Cc2ccc3c(C)nccc3c2)n1` [(S)-4, (2S)-N-{5-[7-methyl-2-(1-methyl-1H-imidazol-5-yl)-imidazo[1,2-a]pyridin-3-yl]-6-[2-(1-methyl-isoquinolin-6-yl)-ethynyl]pyridin-2-yl}-2-(methylamino)-propanamide], the negative-log IC50 (pIC50) on cIAP1 BIR3 is 9.00; at P450 2C19 (setting [2]) it was 4.44; on P450 2C8 (setting [2]), 5.01; at P450 2C9 (setting [2]), 4.57; at P450 3A4 (setting [2]) it was below 4.30. The solubility kinetic at 24 h in data set [1] amounted to 39 µg/mL (≈ 70.3 µM).
Turning to `CNC(C)C(=O)Nc1ccc(-c2c(-c3ccncc3)nc3cc(C)ccn23)c(C#Cc2ccc3nc(C)ccc3c2)n1` (stereo not shown) [Ex 64, reference compound], the pIC50 is 5.37 against P450 2C19 (setting [3]); 6.30 against P450 2C8 (setting [3]); 6.40 against P450 2C9 (setting [3]); 5.28 on P450 2D6; 5.68 at P450 3A4 (setting [3]).
With `CN[C@@H](C)C(=O)Nc1ccc(-c2c(-c3ccc(OC)nc3)nc3cc(C)ccn23)c(C#Cc2ccc3c(ccc(=O)n3C)c2)n1` [(S)-14, (2S)-N-{5-[2-(6-methoxypyridin-3-yl)-7-methylimidazo[1,2-a]pyridin-3-yl]-6-[2-(1-methyl-2-oxo-1,2-dihydroquinolin-6-yl)-ethynyl]pyridin-2-yl}-2-(methylamino)-propanamide], the negative-log IC50 (pIC50) at cIAP1 BIR3 is 9.00; against P450 2C19 (setting [2]) it was below 4.30; against P450 2C8 (setting [2]), below 4.30; on P450 2C9 (setting [2]), below 4.30; against P450 3A4 (setting [2]), below 4.30. In addition, the solubility kinetic at 24 h in data set [1] is below 1 µg/mL.
Take `CN[C@@H](C)C(=O)Nc1ccc(-c2c(-c3cnn(C)c3)nc3cc(C)ccn23)c(C#Cc2ccc3c(C)nccc3c2)n1` [(S)-3, (2S)-N-{5-[7-methyl-2-(1-methyl-1H-pyrazol-4-yl)-imidazo[1,2-a]pyridin-3-yl]-6-[2-(1-methyl-isoquinolin-6-yl)-ethynyl]pyridin-2-yl}-2-(methylamino)-propanamide]: the negative-log IC50 (pIC50) at cIAP1 BIR3 was 9.00; against P450 2C19 (setting [2]), below 4.30; on P450 2C8 (setting [2]), 4.85; against P450 2C9 (setting [2]) it was below 4.30; at P450 3A4 (setting [2]), below 4.30. Further, the solubility kinetic at 24 h in data set [1] was 1 µg/mL (≈ 1.8 µM).
For `CN[C@@H](C)C(=O)Nc1ccc(-c2c(-c3cccnc3OC)nc3cc(C)ccn23)c(C#Cc2ccc3c(C)nccc3c2)n1` [(S)-1, (2S)-N-{5-[2-(2-methoxypyridin-3-yl)-7-methylimidazo[1,2-a]pyridin-3-yl]-6-[2-(1-methylisoquinolin-6-yl)ethynyl]pyridin-2-yl}-2-(methyl-amino)propanamide], the negative-log IC50 (pIC50) on cIAP1 BIR3 was 9.00; on P450 2C19 (setting [2]), below 4.30; against P450 2C8 (setting [2]), 4.96; on P450 2C9 (setting [2]) it was 4.42; against P450 3A4 (setting [2]), below 4.30. Besides, the solubility kinetic at 24 h in data set [1] was found to be 35 µg/mL (≈ 60.2 µM).
Turning to `CN[C@@H](C)C(=O)Nc1ccc(-c2c(-c3cccnc3OC)nc3cc(Cl)ccn23)c(C#Cc2ccc3c(C)nccc3c2)n1` [(S)-15, (2S)-N-{5-[7-chloro-2-(2-methoxypyridin-3-yl)imidazo[1,2-a]-pyridin-3-yl]-6-[2-(1-methylisoquinolin-6-yl)ethynyl]pyridin-2-yl}-2-(methylamino)-propanamide], the negative logarithm of the IC50 (pIC50) on cIAP1 BIR3 was 8.70; on P450 2C19 (setting [2]), 4.49; at P450 2C8 (setting [2]) it was 5.66; on P450 2C9 (setting [2]), 4.72; against P450 3A4 (setting [2]) it was below 4.30. The solubility kinetic at 24 h in data set [1] was determined as 20 µg/mL (≈ 33.2 µM).
Consider `CN[C@@H](C)C(=O)Nc1ccc(-c2c(-c3ccnc(OC)c3)nc3cc(C)ccn23)c(C#Cc2ccc3c(ccc(=O)n3C)c2)n1` [(S)-13, (2S)-N-{5-[2-(2-methoxypyridin-4-yl)-7-methylimidazo[1,2-a]pyridin-3-yl]-6-[2-(1-methyl-2-oxo-1,2-dihydroquinolin-6-yl)-ethynyl]pyridin-2-yl}-2-(methylamino)-propanamide], for which the pIC50 at cIAP1 BIR3 is 9.00; against P450 2C8 (setting [2]) it was 5.35; at P450 2C9 (setting [2]), below 4.30; on P450 3A4 (setting [2]) it was below 4.30. Further, the solubility kinetic at 24 h in data set [1] was below 1 µg/mL.
As for `CN[C@@H](C)C(=O)Nc1ccc(-c2c(-c3ccnc(OC)c3)nc3cc(C)ccn23)c(C#Cc2ccc3c(C)nccc3c2)n1` [(S)-8, (2S)-N-{5-[2-(2-methoxypyridin-4-yl)-7-methylimidazo[1,2-a]pyridin-3-yl]-6-[2-(1-methylisoquinolin-6-yl)ethynyl]pyridin-2-yl}-2-(methyl-amino)propanamide], the negative-log IC50 (pIC50) is 9.00 at cIAP1 BIR3; 4.42 against P450 2C19 (setting [2]); 5.80 at P450 2C8 (setting [2]); below 4.30 at P450 2C9 (setting [2]); below 4.30 at P450 3A4 (setting [2]). The solubility kinetic at 24 h in data set [1] was below 1 µg/mL.
`CN[C@@H](C)C(=O)Nc1ccc(-c2c(-c3ccc(C)nc3)nc3cc(C)ccn23)c(C#Cc2ccc3c(C)nccc3c2)n1` [(S)-6, (2S)-N-{5-[7-methyl-2-(6-methylpyridin-3-yl)imidazo[1,2-a]-pyridin-3-yl]-6-[2-(1-methylisoquinolin-6-yl)ethynyl]pyridin-2-yl}-2-(methylamino)-propanamide]: the pIC50 at cIAP1 BIR3 is 9.00; against P450 2C19 (setting [2]) it was below 4.30; at P450 2C8 (setting [2]), 4.60; on P450 2C9 (setting [2]), below 4.30; against P450 3A4 (setting [2]) it was below 4.30. In addition, in data set [1], the solubility kinetic at 24 h came to 1 µg/mL (≈ 1.77 µM).
For `CN[C@@H](C)C(=O)Nc1ccc(-c2c(-c3cccnc3OC)nc3ccccn23)c(C#Cc2ccc3c(C)nccc3c2)n1` [(S)-16, (2S)-N-{5-[2-(2-methoxypyridin-3-yl)imidazo[1,2-a]-pyridin-3-yl]-6-[2-(1-methylisoquinolin-6-yl)ethynyl]pyridin-2-yl}-2-(methylamino)-propanamide], the pIC50 against P450 2C19 (setting [2]) was below 4.30; on P450 2C8 (setting [2]) it was 5.47; against P450 2C9 (setting [2]) it was 4.68; against P450 3A4 (setting [2]), below 4.30. In data set [1], the solubility kinetic at 24 h was 17 µg/mL (≈ 29.9 µM).
For `CN[C@@H](C)C(=O)Nc1ccc(-c2c(-c3cccnc3C)nc3cc(C)ccn23)c(C#Cc2ccc3c(C)nccc3c2)n1` [(S)-5, (2S)-N-{5-[7-methyl-2-(2-methylpyridin-3-yl)imidazo[1,2-a]-pyridin-3-yl]-6-[2-(1-methylisoquinolin-6-yl)ethynyl]pyridin-2-yl}-2-(methylamino)-propanamide], the pIC50 on cIAP1 BIR3 is 8.70; against P450 2C19 (setting [2]), below 4.30; on P450 2C8 (setting [2]), 5.89; against P450 2C9 (setting [2]), below 4.30; at P450 3A4 (setting [2]), below 4.30. In addition, in data set [1], the solubility kinetic at 24 h is below 1 µg/mL.
As for `CN[C@@H](C)C(=O)Nc1ccc(-c2c(-c3cnc(C)nc3)nc3cc(C)ccn23)c(C#Cc2ccc3c(ccc(=O)n3C)c2)n1` [(S)-12, (2S)-N-{5-[7-methyl-2-(2-methylpyrimidin-5-yl)imidazo[1,2-a]-pyridin-3-yl]-6-[2-(1-methyl-2-oxo-1,2-dihydroquinolin-6-yl)-ethynyl]pyridin-2-yl}-2-(methylamino)-propanamide], the negative-log IC50 (pIC50) at cIAP1 BIR3 was 8.70; against P450 2C19 (setting [2]), below 4.30; against P450 2C8 (setting [2]) it was below 4.30; against P450 2C9 (setting [2]) it was below 4.30; against P450 3A4 (setting [2]), below 4.30. Also, the solubility kinetic at 24 h in data set [1] is below 1 µg/mL.
For the compound `CN[C@@H](C)C(=O)Nc1ccc(-c2c(-c3ccc(OC)nc3)nc3cc(C)ccn23)c(C#Cc2ccc3c(C)nccc3c2)n1` [(S)-9, (2S)-N-{5-[2-(6-methoxypyridin-3-yl)-7-methylimidazo[1,2-a]pyridin-3-yl]-6-[2-(1-methylisoquinolin-6-yl)ethynyl]pyridin-2-yl}-2-(methyl-amino)propanamide], the negative-log IC50 (pIC50) at cIAP1 BIR3 is 9.00; against P450 2C19 (setting [2]), below 4.30; on P450 2C8 (setting [2]), 4.82; against P450 2C9 (setting [2]) it was below 4.30; against P450 3A4 (setting [2]) it was below 4.30. Moreover, in data set [1], the solubility kinetic at 24 h turned out to be 2 µg/mL (≈ 3.44 µM).
For `CN[C@@H](C)C(=O)Nc1ccc(-c2c(-c3cccnc3OC)nc3cc(C)ccn23)c(C#Cc2ccc3c(ccc(=O)n3C)c2)n1` [(S)-10, (2S)-N-{5-[2-(2-methoxypyridin-3-yl)-7-methylimidazo[1,2-a]pyridin-3-yl]-6-[2-(1-methyl-2-oxo-1,2-dihydroquinolin-6-yl)-ethynyl]pyridin-2-yl}-2-(methylamino)-propanamide], the pIC50 at cIAP1 BIR3 was 9.00; on P450 2C19 (setting [2]) it was below 4.30; against P450 2C8 (setting [2]), 5.03; against P450 3A4 (setting [2]), below 4.30. Besides, in data set [1], the solubility kinetic at 24 h amounted to 35 µg/mL (≈ 58.6 µM).
With `CN[C@@H](C)C(=O)Nc1ccc(-c2c(-c3ccnc(C)c3)nc3cc(C)ccn23)c(C#Cc2ccccc2)n1` [(S)-11, (2S)-N-{5-[7-methyl-2-(2-methylpyridin-4-yl)imidazo[1,2-a]-pyridin-3-yl]-6-(2-phenylethynyl)pyridin-2-yl}-2-(methyl-amino)propanamide], the pIC50 on cIAP1 BIR3 is 9.00; against P450 2C19 (setting [2]), 4.85; against P450 2C8 (setting [2]) it was 4.82; on P450 2C9 (setting [2]), below 4.30; at P450 3A4 (setting [2]), 4.34.
